Experimental data reported in patent US9144251B2, “High-potency sweetener composition with mineral and compositions sweetened therewith” (The Coca-Cola Company, priority 2005, dated 2015).

Test: Sensory evaluation of sweetness linger and sugar-like taste by a panel of experts (Example Sets G and H)
Format: in vivo
Set-up: key: 0=no sweetness linger; 1 very slight sweetness linger; 2=slight sweetness linger; 3 moderate sweetness linger; 4=moderately high sweetness linger; 5=high sweetness linger
Settings: scale 0-5; for Sweetness Linger rating (defined anchors of the scale): sucrose, 500 ppm of REBA control sample
Method: Sensory evaluation of the samples prepared in Example Set G was carried out under the following protocol, similar to that described hereinabove. In this test protocol, none of the samples were swallowed. All samples were expectorated and the mouth was rinsed with water after the tasting. Immediately upon sensing maximal sweetness, the sample was expectorated, the mouth was rinsed with water and the rate of sweetness decay (“Sweetness Linger”) was measured, where attention was focused on the sweetness 3-4 min after the water rinse. After sample tasting was complete, a salty oyster cracker was chewed followed by a water rinse, and at least 5 minutes followed before tasting the next sample. The sweetness linger was rated by a panel of experts in the sensory evaluation of foods and beverages using the following scale: 0=no sweetness linger, 1 very slight sweetness linger, 2=slight sweetness linger, 3 moderate sweetness linger, 4=moderately high sweetness linger, 5=high sweetness linger.
The “Sweetness Linger” rating for sucrose observed by this protocol is defined as 0. The Sweetness Linger of a 500 ppm of REBA control sample is defined as 5. Experimental samples were tasted by the same protocol, always allowing sufficient time between samples to ensure re-equilibration of the sensory system. Re-tasting of control samples during the course of the experiment was allowed and encouraged.
The comparison taste test was performed between two controls and addition of sweet taste improving additive on the onset and/or sweetness linger.
Sweet taste improving compositions were combined with a REBA solution to determine their effect on sweetness linger. Screening of the initial sample, or further dilutions, allowed identification of concentrations which were just above-threshold, herein defined as “near-threshold concentrations.” The near-threshold additive concentrations, a 6- to 100-fold higher higher additive concentration (depending on the off-taste intensity), and a mid-level additive concentration (halfway between the near-threshold and higher additive concentration) were evaluated to determine the effect on sweetness linger of a REBA solution.
Formulations of a 500 ppm REBA in a phosphoric acid solution (75%) at a pH of 2.5 with phosphoric acid or a pH of 3.1 with citric acid and potassium citrate were prepared prior to the addition of the additives at the three levels of concentration.
Sensory evaluation using the protocol described in Example Set G then was used to evaluate the sweetness linger of the REBA solutions.

Compound	sweetness linger rating, control sample (400 ppm REBA in citric acid/potassium citrate composition equivalent to diet lemon-lime beverage, no additive)	sweetness linger rating, control sample (500 ppm in carbon-treated water, phosphoric acid (75%) to pH 2.4-2.5, no additive)	Sweetness Linger rating (defined anchors of the scale)	sweetness linger rating, control sample (8 g of sugar in 100 ml of citrate buffer)	sweetness linger rating, control sample (10 g of sugar in 100 ml carbon treated water, phosphoric acid (75%) to pH 2.4-2.5)
rebaudioside A	5	5	5	–	–
OC[C@H]1O[C@@](CO)(O[C@H]2O[C@H](CO)[C@@H](O)[C@H](O)[C@H]2O)[C@@H](O)[C@@H]1O [sugar, sucrose]	–	–	0	0	0
